Assay results as given in PMC6134404 (Organic & biomolecular chemistry, 2018).

What was measured:
OxaC [1] = target: T1, OxaC (Penicillium oxalicum, UniProt A0A1B2TT09); test: X-ray crystal structure, […] Å; type: binding
OxaC [2] = target: T1, OxaC; test: X-ray crystal structure, […] Å; type: binding; remark: listed apart in the source
[3] = tested on: C=CC(C)(C)[C@@]12C=C(O)C(=O)N3/C(=C/c4cnc[nH]4)C(=O)N[C@]31N(OC)c1ccccc12; test: HPLC initial-velocity assay, Michaelis-Menten fit; type: biochemical, Penicillium oxalicum; conditions: 0.9 nM OxaC, 0.5 mM SAM, 50 mM Na/K phosphate pH 8.0, 23 °C
crystal structure = target: the molecule itself; test: crystal structure

## Nc1ncnc2c1ncn2[C@@H]1O[C@H](CSCC[C@H](N)C(=O)O)[C@@H](O)[C@H]1O [S-adenosyl-L-homocysteine]
OxaC [1]; SAM site, product complex with oxaline
  X-ray crystal structure, 2.50 Å: a product complex containing SAH and oxaline

## C=CC(C)(C)[C@]12C=C(OC)C(=O)N3/C(=C/c4cnc[nH]4)C(=O)N[C@@]31N(OC)c1ccccc12 [compound 3, oxaline]
OxaC [1]; product complex with SAH, co-crystallised with meleagrin and SAM
  X-ray crystal structure, 2.50 Å: a product complex containing SAH and oxaline

## C=CC(C)(C)[C@@]12C=C(O)C(=O)N3/C(=C/c4cnc[nH]4)C(=O)N[C@]31N(OC)c1ccccc12 [compound 2, meleagrin]
OxaC [2]; pseudo-Michaelis complex with sinefungin
  X-ray crystal structure, 2.95 Å: a pseudo-Michaelis complex composed of the SAM analog sinefungin and the natural substrate meleagrin

## Nc1ncnc2c1ncn2[C@@H]1O[C@H](C[C@@H](N)CC[C@H](N)C(=O)O)[C@@H](O)[C@H]1O [sinefungin]
OxaC [2]; SAM site, complex with meleagrin
  X-ray crystal structure, 2.95 Å: a pseudo-Michaelis complex composed of the SAM analog sinefungin and the natural substrate meleagrin

## OxaC (Penicillium oxalicum)
[3]
  Km: 3.1 ± 0.9 µM
  kcat: 1.3 ± 0.2 s⁻¹
  kcat/Km: 420000 M⁻¹ s⁻¹

B1: OxaC (enzyme)
chain: MGSSHHHHHHHHGASENLYFQGASMTFSNADAQKIAVQKDVDEVVAAAQRFLHGSGNATSDEAKVDLQKKASNLVQTIRGPIPAALSSMEDIVKVASLRTLFEAGVFHAMPKGGASMTASEISAQTGLDKGILIRLMRAVTPLGPFHEVGEEEYAHTPFSEAYLTADIAGCFPVMSNFIFGPVLQICDFLRQNNWKDAITTRNNPFTLAHNCPGETMFEHLYKNSKNVAPVTKAEAADVDQIAMDLYPWEERLSDAKGSNATLVDIAGSHGNGTRAIMALAPKLNGCRFIVQDLEPVIGEHSQALRAEGIEPQVYDFLKQEQPVHGASIYYFRRVFHDWPDLPEGKKILDNTRAAMSREHSRILIHDIIVPEIGATMSHAWQDLSLMAIGGMERTEKDFARLLDIAGLALVKVWRKPGDMMGIIEARLK
Crystal structure
  stoichiometry N: 2
